Test results as given in patent EP3481220B1, “SWEET RAPESEED PROTEIN ISOLATE AND PROCESS FOR OBTAINING IT” (DSM IP Assets B.V., priority 2016, dated 2018).

Legend:
[1] = Conductivity in aqueous solution (conductivity meter); format: physicochemical; conditions: aqueous 5 g/l solution; given for comparison
[2] = Equal sweetness, sensory panel, versus sucrose solutions; format: in vivo; conditions: scored against the reference = 50, line scale 0-100
Description: The flavor characteristics can be evaluated by a sensory panel using techniques known in the art. Investigating the effects of flavor, mouthfeel and aftertaste requires an extended evaluation of the products and this was done by using Quantitative Descriptive Analysis (QDA). Therefore, a sensory panel assessed the protein products taking in account Good Sensory Practices. During the QDA measurement the intensities of the attributes were obtained by the Fizz sensory data acquisition system, using unstructured line scales ranging from 0-100. The products were evaluated twice with 11 panel members. The products were given one-by-one to the panel members. The products were given in a white polystyrene cup with a white polystyrene spoon in order to prevent sedimentation during tasting. Data were analyzed using SenPaq (Ql-statistics).
The panelists received a reference sample (2 wt.% rapeseed protein isolate in water) with a potency designated by an arbitrary sweetness value of 50 (middle of the scale), followed by several sucrose solutions coded and balanced with potencies higher than or lower than the reference. Panelists scored for example a sample that is perceived as twice as strong as the reference with a score of 100, half the sweetness was given a value of 25. Scores were gathered by means of FIZZ data acquisition on unstructured line scales ranging from 0-100. The various concentrations of sucrose were first determined by a pretest.
To identify the sweetness character (i.e. initial sweetness, lingering) of 2% rapeseed protein isolate in water compared to sucrose solutions (10 g/l, 20 g/l, 30 g/l, 40 g/l and 50 g/l) the samples were taken into the mouth on instruction of the panel leader. Directly the intensity of the sweetness was scored. After three seconds the sample was swallowed and the intensity was scored again, followed by scoring at 5, 10, 20, 30, 60, 90 and 120 seconds after swallowing. Intensity scores were given on unstructured 0-100 line scales in FIZZ. The samples were evaluated one-by-one in duplicate according to an optimally balanced design. Equal sweetness and sweetness character was assessed by comparing a 2 wt.% aqueous solution of the resultant native rapeseed protein isolate with aqueous sucrose solutions of different strengths at room temperature.

| SMILES | conductivity [1] | Relative Sweetness ([2]; 10 g/l aqueous solution) | Relative Sweetness ([2]; 20 g/l aqueous solution) | Relative Sweetness ([2]; 30 g/l aqueous solution) | Relative Sweetness ([2]; 40 g/l aqueous solution) | Relative Sweetness ([2]; 50 g/l aqueous solution) |
| --- | --- | --- | --- | --- | --- | --- |
| [Cl-].[Na+] [sodium chloride] | around 9,400 µS/cm | – | – | – | – | – |
| OC[C@H]1O[C@@](CO)(O[C@H]2O[C@H](CO)[C@@H](O)[C@H](O)[C@H]2O)[C@@H](O)[C@@H]1O [Sucrose] | – | 35 | 49 | 68 | 70 | 78 |
